The values below come from ChEMBL document CHEMBL1201862, “PubChem BioAssay data set” (2004).

Among the test systems are SR; ACHN; KM12; UACC-62; SK-MEL-28; NCI/ADR-RES; NCI-H23; HCT-116; BT-549; SN12C; OVCAR-3; HCC 2998; A498; MCF7; CAKI-1; T47D; UACC-257; NCI-H460; RXF 393.
Holding throughout (experiment): NCI anticancer screen, dose series, 48 h

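Each compound was tested at five concentrations against cells in 96-well plates for 48 hours. The concentration for 50% growth inhibition is given as GI50.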 Calls of active or inactive are those of the source. Cut-off read from the data, not from the text of the source: active = GI50 up to about 1.1 µM and inactive = higher.

As for `COC(=O)[C@]1(C)CCCC2(C)C3=C(CCC21)CC1(CC3)SCCS1` (some centres not stated), the GI50 in the assay with SR, with ACHN, in the assay with KM12, with UACC-62, with SK-MEL-28 and with NCI/ADR-RES was > 10 µM (inactive) each time. Also, the GI50 in the assay on NCI-H23, in the assay with HCT-116, in the assay on BT-549, with SN12C, in the assay on OVCAR-3 and in the assay on HCC 2998 was > 10 µM (inactive) each time. In addition, the GI50 in the assay on A498, with MCF7, in the assay on CAKI-1, with T47D and in the assay with UACC-257 was > 10 µM (inactive) in each case.

In the case of `COC(=O)C1CCC(=O)N1C(c1ccc(OC)cc1)c1ccc(OC)cc1` (configuration not stated), the GI50 in the assay with SR, in the assay on ACHN, in the assay with KM12, in the assay on UACC-62, in the assay on SK-MEL-28 and with NCI/ADR-RES was > 100 µM (inactive) in each case. In addition, the GI50 in the assay on NCI-H23, with HCT-116, with BT-549, in the assay with SN12C, with OVCAR-3 and in the assay on NCI-H460 was > 100 µM (inactive) each time. Moreover, the GI50 in the assay on HCC 2998 was > 100 µM (inactive); with A498, > 100 µM (inactive); with MCF7, > 100 µM (inactive); in the assay on CAKI-1 it was > 100 µM (inactive); in the assay on T47D it was 78.9 µM (inactive); with UACC-257, > 100 µM (inactive).

For `CS(=O)(=O)O[C@H]1CN2C[C@@H](O)[C@@H](O)[C@H]2[C@H]1CO.[B]`, the GI50 in the assay on SR, in the assay on ACHN, in the assay with KM12, in the assay with UACC-62, in the assay on SK-MEL-28 and in the assay on NCI/ADR-RES was > 100 µM (inactive) each time. Besides, the GI50 with NCI-H23, in the assay with HCT-116, with BT-549, in the assay with OVCAR-3, in the assay with RXF 393 and with NCI-H460 was > 100 µM (inactive) throughout. In addition, the GI50 in the assay with HCC 2998, with A498, in the assay on MCF7, in the assay with CAKI-1, in the assay with T47D and with UACC-257 was > 100 µM (inactive) throughout.

For `COc1cc2c(=O)cnoc2cc1O`, the GI50 in the assay on SR, in the assay on ACHN, in the assay on KM12, in the assay on UACC-62, in the assay on SK-MEL-28 and in the assay on NCI/ADR-RES was > 100 µM (inactive) each time. Besides, the GI50 in the assay with NCI-H23, in the assay on BT-549, with SN12C, with OVCAR-3, in the assay on RXF 393 and in the assay on NCI-H460 was > 100 µM (inactive) each time. The GI50 is > 100 µM (inactive) with HCC 2998; 39.5 µM (inactive) in the assay on A498; > 100 µM (inactive) in the assay on MCF7; > 100 µM (inactive) with CAKI-1; > 100 µM (inactive) with T47D; > 100 µM (inactive) with UACC-257.

In the case of `CCOP(=O)(CCCC(O)CNc1cc(Cl)nc(N)n1)OCC` (configuration not stated), the GI50 in the assay with SR, in the assay on ACHN, in the assay on KM12, in the assay on UACC-62, in the assay with SK-MEL-28 and in the assay with NCI/ADR-RES was > 100 µM (inactive) in each case. Moreover, the GI50 with NCI-H23, in the assay with HCT-116, with BT-549, in the assay on SN12C, in the assay on OVCAR-3 and with RXF 393 was > 100 µM (inactive) throughout. Further, the GI50 in the assay with NCI-H460, with HCC 2998, with A498, in the assay on MCF7, in the assay on CAKI-1 and in the assay on T47D was > 100 µM (inactive) each time. The GI50 in the assay with UACC-257 is > 100 µM (inactive).

With `Cc1cc(/N=C/c2ccc(N(C)C)cc2)n(-c2ccccc2)n1`, the GI50 is 19.1 µM (inactive) in the assay on SR; > 100 µM (inactive) in the assay with ACHN; 16.7 µM (inactive) in the assay on KM12; 86.7 µM (inactive) with UACC-62; > 100 µM (inactive) in the assay on SK-MEL-28; 24.7 µM (inactive) in the assay on NCI/ADR-RES. Moreover, the GI50 with NCI-H23 is 51.2 µM (inactive); in the assay with HCT-116, 25.5 µM (inactive); in the assay with BT-549 it was 51.3 µM (inactive); in the assay on SN12C it was 28.4 µM (inactive); in the assay on OVCAR-3, 9.16 µM (inactive); with RXF 393 it was 44.4 µM (inactive). The GI50 in the assay on NCI-H460 is 23.9 µM (inactive); with HCC 2998, 20.1 µM (inactive); in the assay with A498, 26.1 µM (inactive); in the assay on MCF7, 31 µM (inactive); with CAKI-1, 62.7 µM (inactive); in the assay with T47D it was 18.5 µM (inactive). Besides, the GI50 in the assay with UACC-257 was 91.4 µM (inactive).

For `CC(=O)OC12c3ccccc3C(c3ccccc31)C1C(=O)N(c3ccccc3O)C(=O)C12` (configuration not stated), the GI50 in the assay with SR is > 100 µM (inactive); with ACHN, > 100 µM (inactive); with KM12, 92.7 µM (inactive); in the assay with UACC-62, > 10 µM (inactive); in the assay with SK-MEL-28 it was > 100 µM (inactive); with NCI/ADR-RES, > 100 µM (inactive). For the same compound, the GI50 with NCI-H23 is 41.6 µM (inactive); with HCT-116, > 100 µM (inactive); in the assay with BT-549 it was > 100 µM (inactive); with SN12C, > 100 µM (inactive); with OVCAR-3, 90.8 µM (inactive); in the assay with RXF 393, > 100 µM (inactive). Moreover, the GI50 in the assay with NCI-H460 is > 100 µM (inactive); with HCC 2998, > 100 µM (inactive); in the assay on A498, 90.2 µM (inactive); with MCF7, > 100 µM (inactive); in the assay on CAKI-1, > 100 µM (inactive); with T47D, > 100 µM (inactive). Besides, the GI50 with UACC-257 is > 100 µM (inactive).

For the compound `NS(=O)(=O)c1ccc(Nc2c3ccccc3nc3c(C(=O)NC(CO)(CO)CO)cccc23)cc1`, the GI50 is 0.334 µM (active) with SR; 0.19 µM (active) in the assay with ACHN; 0.158 µM (active) in the assay on KM12; 0.138 µM (active) in the assay with UACC-62; 0.242 µM (active) with SK-MEL-28; 0.769 µM (active) with NCI/ADR-RES. In addition, the GI50 with NCI-H23 is 0.15 µM (active); in the assay on HCT-116 it was 0.144 µM (active); with BT-549, 0.126 µM (active); with SN12C, 0.199 µM (active); in the assay with OVCAR-3, 0.15 µM (active); with RXF 393, 0.185 µM (active). Also, the GI50 in the assay with NCI-H460 is 0.0668 µM (active); in the assay with HCC 2998 it was 0.212 µM (active); in the assay with A498, 0.224 µM (active); in the assay on MCF7, 0.0143 µM (active); with CAKI-1, 0.218 µM (active); with T47D, 0.0815 µM (active). Moreover, in the assay on UACC-257, the GI50 was 0.181 µM (active).

With `COc1cc(COC(=O)N2CC=CC2C(=O)O)c([N+](=O)[O-])cc1OC` (configuration not stated), the GI50 in the assay on SR, in the assay with ACHN, with KM12, in the assay on UACC-62, in the assay on SK-MEL-28 and in the assay with NCI/ADR-RES was > 100 µM (inactive) throughout. Moreover, the GI50 with NCI-H23, in the assay with HCT-116, in the assay with BT-549, in the assay with SN12C, in the assay with OVCAR-3 and in the assay with RXF 393 was > 100 µM (inactive) each time. Moreover, the GI50 with NCI-H460, in the assay with HCC 2998, in the assay with A498, in the assay on MCF7, in the assay with T47D and in the assay on UACC-257 was > 100 µM (inactive) each time.

Regarding `COC1OC(C)C(NC(=O)OCC(Cl)(Cl)Cl)C2OC(C)(C)OC12` (configuration not stated), the GI50 in the assay on SR, in the assay on ACHN, in the assay on KM12, in the assay on UACC-62, with SK-MEL-28 and in the assay on NCI/ADR-RES was > 100 µM (inactive) each time. Moreover, the GI50 in the assay with NCI-H23, with HCT-116, in the assay with BT-549, in the assay on SN12C, in the assay on OVCAR-3 and in the assay with RXF 393 was > 100 µM (inactive) throughout. For the same compound, the GI50 in the assay on NCI-H460, in the assay on HCC 2998, in the assay on A498, with MCF7, in the assay with CAKI-1 and with T47D was > 100 µM (inactive) each time. Further, the GI50 with UACC-257 was > 100 µM (inactive).

Regarding `N#CC(=S)Nc1ccc(Cl)c(Cl)c1`, the GI50 is 21.7 µM (inactive) in the assay on SR; 33.3 µM (inactive) with ACHN; 26.9 µM (inactive) with KM12; 19 µM (inactive) with UACC-62; 30.3 µM (inactive) in the assay with SK-MEL-28; 26.3 µM (inactive) in the assay with NCI/ADR-RES. The GI50 is 31.9 µM (inactive) in the assay on NCI-H23; 28.8 µM (inactive) with HCT-116; 27 µM (inactive) in the assay on BT-549; 30.5 µM (inactive) with SN12C; 20.5 µM (inactive) with OVCAR-3; 25.4 µM (inactive) with RXF 393. Further, the GI50 is 18.7 µM (inactive) in the assay on HCC 2998; 32.7 µM (inactive) in the assay on A498; 35.5 µM (inactive) with MCF7; 29.8 µM (inactive) in the assay with CAKI-1; 27.1 µM (inactive) in the assay with T47D; 28.2 µM (inactive) in the assay on UACC-257.
